Laboratory results as given in PMC12090182, “Repurposing of the RIPK1-Selective Benzo[1,4]oxazepin-4-one Scaffold for the Development of a Type III LIMK1/2 Inhibitor” (ACS Chemical Biology, 2025).

Assays:
FGFR3(G697C) = FGFR3(G697C) (Homo sapiens, UniProt P22607, G697C); test: biochemical; assay type: binding; details: read-out: Percent Control
PIK3CA(Q546K) = PIK3CA(Q546K) (Homo sapiens, UniProt P42336, Q546K); test: biochemical; assay type: binding; details: read-out: Percent Control
BRPF1B = BRPF1B (Homo sapiens, UniProt P55201); test: DSF selectivity screening; assay type: binding; details: 10 μM compound
PIK3CA(H1047Y) = PIK3CA(H1047Y) (Homo sapiens, UniProt P42336, H1047Y); test: biochemical; assay type: binding; details: compound concentration 100 nM; Entrez PIK3CA; read-out: Percent Control
[1] = target: ABL1(F317I)-phosphorylated (Homo sapiens, UniProt P00519, F317I); test: biochemical; assay type: binding; details: compound concentration 100 nM; Entrez ABL1; read-out: Percent Control
Chain of ABL1(F317I)-phosphorylated (P00519 whole entry F317I): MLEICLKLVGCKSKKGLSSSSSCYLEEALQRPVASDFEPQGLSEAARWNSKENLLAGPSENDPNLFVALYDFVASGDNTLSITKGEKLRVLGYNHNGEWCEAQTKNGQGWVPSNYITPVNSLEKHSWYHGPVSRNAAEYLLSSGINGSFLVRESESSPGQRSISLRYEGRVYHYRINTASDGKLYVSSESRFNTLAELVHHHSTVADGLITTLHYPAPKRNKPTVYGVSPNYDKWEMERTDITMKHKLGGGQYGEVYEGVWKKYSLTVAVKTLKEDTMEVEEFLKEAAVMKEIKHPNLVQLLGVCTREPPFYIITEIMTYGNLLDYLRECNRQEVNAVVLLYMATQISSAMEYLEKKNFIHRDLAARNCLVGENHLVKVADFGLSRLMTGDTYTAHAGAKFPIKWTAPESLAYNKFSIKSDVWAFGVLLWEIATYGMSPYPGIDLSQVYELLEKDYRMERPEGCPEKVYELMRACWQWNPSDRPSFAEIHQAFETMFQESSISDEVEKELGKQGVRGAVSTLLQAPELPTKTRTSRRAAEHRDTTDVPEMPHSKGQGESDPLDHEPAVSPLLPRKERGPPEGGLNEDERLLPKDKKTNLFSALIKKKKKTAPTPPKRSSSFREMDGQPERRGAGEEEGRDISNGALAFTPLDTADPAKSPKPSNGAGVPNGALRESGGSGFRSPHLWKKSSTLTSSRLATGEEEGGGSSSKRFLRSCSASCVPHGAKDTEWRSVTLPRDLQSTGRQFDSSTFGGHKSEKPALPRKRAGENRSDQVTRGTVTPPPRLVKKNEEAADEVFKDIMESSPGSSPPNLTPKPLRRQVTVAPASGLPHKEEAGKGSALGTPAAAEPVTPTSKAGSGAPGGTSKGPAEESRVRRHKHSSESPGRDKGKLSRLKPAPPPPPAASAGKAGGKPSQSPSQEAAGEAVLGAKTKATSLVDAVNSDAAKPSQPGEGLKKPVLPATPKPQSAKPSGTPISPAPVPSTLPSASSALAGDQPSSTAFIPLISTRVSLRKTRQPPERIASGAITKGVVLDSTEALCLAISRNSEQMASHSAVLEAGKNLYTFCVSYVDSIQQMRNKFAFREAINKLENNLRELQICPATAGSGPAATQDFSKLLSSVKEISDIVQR

EGFR(L858R,T790M) = EGFR(L858R,T790M) (Homo sapiens, UniProt P00533, L858R/T790M); test: biochemical; assay type: binding; details: compound concentration 100 nM; Entrez EGFR; read-out: Percent Control
EGFR(L858R) = EGFR(L858R) (Homo sapiens, UniProt P00533, L858R); test: biochemical; assay type: binding; details: compound concentration 100 nM; Entrez EGFR; read-out: Percent Control
BRAF(V600E) = BRAF(V600E) (Homo sapiens, UniProt P15056, V600E); test: biochemical; assay type: binding; details: compound concentration 100 nM; Entrez BRAF; read-out: Percent Control
Chain of BRAF(V600E) (P15056 whole entry V600E): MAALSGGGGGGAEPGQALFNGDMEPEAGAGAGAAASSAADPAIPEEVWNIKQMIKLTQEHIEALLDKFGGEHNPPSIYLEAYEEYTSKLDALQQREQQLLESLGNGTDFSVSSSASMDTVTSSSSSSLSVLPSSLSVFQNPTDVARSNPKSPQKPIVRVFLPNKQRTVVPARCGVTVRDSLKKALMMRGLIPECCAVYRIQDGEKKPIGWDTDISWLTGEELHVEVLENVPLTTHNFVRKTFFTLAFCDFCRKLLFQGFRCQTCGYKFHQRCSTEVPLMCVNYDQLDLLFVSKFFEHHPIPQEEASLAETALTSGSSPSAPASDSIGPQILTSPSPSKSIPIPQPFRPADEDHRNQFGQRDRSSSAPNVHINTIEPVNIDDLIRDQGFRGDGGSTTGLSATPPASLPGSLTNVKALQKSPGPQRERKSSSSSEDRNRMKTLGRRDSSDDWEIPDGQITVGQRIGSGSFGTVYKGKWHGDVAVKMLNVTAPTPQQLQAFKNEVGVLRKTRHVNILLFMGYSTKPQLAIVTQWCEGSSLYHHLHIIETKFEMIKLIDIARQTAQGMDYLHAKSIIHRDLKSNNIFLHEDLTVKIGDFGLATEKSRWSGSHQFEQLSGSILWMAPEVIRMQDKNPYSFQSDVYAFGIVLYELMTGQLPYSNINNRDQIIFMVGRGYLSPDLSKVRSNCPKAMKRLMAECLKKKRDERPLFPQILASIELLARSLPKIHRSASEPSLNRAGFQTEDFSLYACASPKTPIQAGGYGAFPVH

KIT(A829P) = KIT(A829P) (Homo sapiens, UniProt P10721, A829P); test: biochemical; assay type: binding; details: compound concentration 100 nM; Entrez KIT; read-out: Percent Control
Chain of KIT(A829P) (P10721 26-976 A829P): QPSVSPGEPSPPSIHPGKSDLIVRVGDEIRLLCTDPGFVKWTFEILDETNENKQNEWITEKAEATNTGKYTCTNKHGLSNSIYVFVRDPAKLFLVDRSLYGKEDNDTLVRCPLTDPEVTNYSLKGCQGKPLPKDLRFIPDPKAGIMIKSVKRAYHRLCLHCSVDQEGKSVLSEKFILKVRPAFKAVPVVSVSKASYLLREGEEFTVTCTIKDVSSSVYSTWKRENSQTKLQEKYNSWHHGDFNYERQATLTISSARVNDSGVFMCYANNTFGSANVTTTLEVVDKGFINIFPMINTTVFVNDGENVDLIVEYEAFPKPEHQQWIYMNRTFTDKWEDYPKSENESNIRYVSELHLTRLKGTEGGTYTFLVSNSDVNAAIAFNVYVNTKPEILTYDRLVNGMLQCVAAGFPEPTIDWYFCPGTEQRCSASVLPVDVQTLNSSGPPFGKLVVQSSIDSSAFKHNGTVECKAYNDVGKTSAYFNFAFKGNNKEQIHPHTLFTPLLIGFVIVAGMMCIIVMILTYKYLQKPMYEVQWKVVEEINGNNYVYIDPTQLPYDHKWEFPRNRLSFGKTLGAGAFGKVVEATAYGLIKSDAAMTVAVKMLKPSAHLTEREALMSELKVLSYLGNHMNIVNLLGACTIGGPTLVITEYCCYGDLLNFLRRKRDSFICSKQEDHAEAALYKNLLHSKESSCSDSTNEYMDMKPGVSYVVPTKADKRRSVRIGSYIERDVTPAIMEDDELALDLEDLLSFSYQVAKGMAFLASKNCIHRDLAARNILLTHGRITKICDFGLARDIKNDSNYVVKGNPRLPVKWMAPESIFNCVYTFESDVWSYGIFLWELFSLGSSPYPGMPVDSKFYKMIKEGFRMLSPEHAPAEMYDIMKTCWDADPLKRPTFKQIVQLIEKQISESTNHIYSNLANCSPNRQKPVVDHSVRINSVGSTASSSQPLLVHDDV

PIK3CA(M1043I) = PIK3CA(M1043I) (Homo sapiens, UniProt P42336, M1043I); test: biochemical; assay type: binding; details: read-out: Percent Control
LRRK2(G2019S) = LRRK2(G2019S) (Homo sapiens, UniProt Q5S007, G2019S); test: biochemical; assay type: binding; details: read-out: Percent Control
[2] = target: ABL1(F317L)-nonphosphorylated (Homo sapiens, UniProt P00519, F317L); test: biochemical; assay type: binding; details: read-out: Percent Control
Chain of ABL1(F317L)-nonphosphorylated (P00519 whole entry F317L): as the sequence (P00519 whole entry F317I) above, with I317L counted along it

NEK9 = NEK9 (Homo sapiens, UniProt Q8TD19); assay type: cell-based; details: HEK-293T; 1 μM inhibitor, HEK293T cells
How it was run: (§1)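 Occupancy is computed for each kinase from filtered luminescence (450 nm donor, 610 nm acceptor). The assay uses HEK293T cells transiently expressing K192 kit constructs for 20 h, exposed to Tracer K10 at kit-recommended levels and to inhibitor at 1 μM.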

MERTK = MERTK (Homo sapiens, UniProt Q12866); assay type: cell-based; details: HEK-293T; 1 μM inhibitor, HEK293T cells
Chain of MERTK (Q12866 21-999): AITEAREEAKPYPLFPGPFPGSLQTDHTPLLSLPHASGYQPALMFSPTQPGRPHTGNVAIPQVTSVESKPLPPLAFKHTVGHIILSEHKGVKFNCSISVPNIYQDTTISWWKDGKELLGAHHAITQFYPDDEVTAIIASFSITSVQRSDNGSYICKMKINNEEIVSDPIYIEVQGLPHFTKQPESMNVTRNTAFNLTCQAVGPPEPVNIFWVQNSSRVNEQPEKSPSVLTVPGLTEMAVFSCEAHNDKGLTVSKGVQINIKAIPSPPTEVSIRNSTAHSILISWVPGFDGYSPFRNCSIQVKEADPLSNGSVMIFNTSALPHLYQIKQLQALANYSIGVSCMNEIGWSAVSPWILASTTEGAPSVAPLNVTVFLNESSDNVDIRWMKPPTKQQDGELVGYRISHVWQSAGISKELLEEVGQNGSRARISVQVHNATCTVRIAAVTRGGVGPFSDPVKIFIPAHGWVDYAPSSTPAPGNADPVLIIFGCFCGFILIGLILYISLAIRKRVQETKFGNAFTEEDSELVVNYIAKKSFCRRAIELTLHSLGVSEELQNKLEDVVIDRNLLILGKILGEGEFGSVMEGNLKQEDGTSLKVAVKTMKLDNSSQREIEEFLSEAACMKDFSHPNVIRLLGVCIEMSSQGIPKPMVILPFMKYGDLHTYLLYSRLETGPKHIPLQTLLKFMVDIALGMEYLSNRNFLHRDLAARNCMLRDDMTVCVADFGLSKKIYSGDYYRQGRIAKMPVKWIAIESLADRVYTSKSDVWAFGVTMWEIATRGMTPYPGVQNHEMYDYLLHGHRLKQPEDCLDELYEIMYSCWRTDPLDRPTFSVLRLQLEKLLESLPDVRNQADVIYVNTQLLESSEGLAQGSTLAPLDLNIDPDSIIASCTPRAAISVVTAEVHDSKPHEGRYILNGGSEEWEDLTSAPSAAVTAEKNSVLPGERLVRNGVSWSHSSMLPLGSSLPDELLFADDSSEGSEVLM
How it was run: as §1

CDK17 = CDK17 (Homo sapiens, UniProt Q00537); assay type: cell-based; details: HEK-293T; 1 μM inhibitor, HEK293T cells
How it was run: as §1

MAP3K3 = MAP3K3 (Homo sapiens, UniProt Q99759); assay type: cell-based; details: HEK-293T; 1 μM inhibitor, HEK293T cells
How it was run: as §1

TNK2(iso1) = TNK2(iso1) (Homo sapiens, UniProt Q07912); assay type: cell-based; details: HEK-293T; 1 μM inhibitor, HEK293T cells
How it was run: as §1

CHEK2 = CHEK2 (Homo sapiens, UniProt O96017); assay type: cell-based; details: HEK-293T; 1 μM inhibitor, HEK293T cells
How it was run: as §1

TYRO3 = TYRO3 (Homo sapiens, UniProt Q06418); assay type: cell-based; details: HEK-293T; 1 μM inhibitor, HEK293T cells
How it was run: as §1

BRSK2 = BRSK2 (Homo sapiens, UniProt Q8IWQ3); assay type: cell-based; details: HEK-293T; 1 μM inhibitor, HEK293T cells
How it was run: as §1

NEK5 = NEK5 (Homo sapiens, UniProt Q6P3R8); assay type: cell-based; details: HEK-293T; 1 μM inhibitor, HEK293T cells
How it was run: as §1

CDK4 = CDK4 (Homo sapiens, UniProt P11802); assay type: cell-based; details: HEK-293T; 1 μM inhibitor, HEK293T cells
How it was run: as §1

NTRK2 = NTRK2 (Homo sapiens, UniProt Q16620); assay type: cell-based; details: HEK-293T; 1 μM inhibitor, HEK293T cells
How it was run: as §1

SIK3 FL = SIK3 FL (Homo sapiens, UniProt Q9Y2K2); assay type: cell-based; details: HEK-293T; 1 μM inhibitor, HEK293T cells
How it was run: as §1

PTK2 = PTK2 (Homo sapiens, UniProt Q05397); assay type: cell-based; details: 1 μM inhibitor, HEK293T cells
How it was run: as §1

PAK4 = PAK4 (Homo sapiens, UniProt O96013); assay type: cell-based; details: HEK-293T; 1 μM inhibitor, HEK293T cells
How it was run: as §1

CDK15 = CDK15 (Homo sapiens, UniProt Q96Q40); assay type: cell-based; details: HEK-293T; 1 μM inhibitor, HEK293T cells
How it was run: as §1

Chain of FGFR3(G697C) (P22607 23-806 G697C): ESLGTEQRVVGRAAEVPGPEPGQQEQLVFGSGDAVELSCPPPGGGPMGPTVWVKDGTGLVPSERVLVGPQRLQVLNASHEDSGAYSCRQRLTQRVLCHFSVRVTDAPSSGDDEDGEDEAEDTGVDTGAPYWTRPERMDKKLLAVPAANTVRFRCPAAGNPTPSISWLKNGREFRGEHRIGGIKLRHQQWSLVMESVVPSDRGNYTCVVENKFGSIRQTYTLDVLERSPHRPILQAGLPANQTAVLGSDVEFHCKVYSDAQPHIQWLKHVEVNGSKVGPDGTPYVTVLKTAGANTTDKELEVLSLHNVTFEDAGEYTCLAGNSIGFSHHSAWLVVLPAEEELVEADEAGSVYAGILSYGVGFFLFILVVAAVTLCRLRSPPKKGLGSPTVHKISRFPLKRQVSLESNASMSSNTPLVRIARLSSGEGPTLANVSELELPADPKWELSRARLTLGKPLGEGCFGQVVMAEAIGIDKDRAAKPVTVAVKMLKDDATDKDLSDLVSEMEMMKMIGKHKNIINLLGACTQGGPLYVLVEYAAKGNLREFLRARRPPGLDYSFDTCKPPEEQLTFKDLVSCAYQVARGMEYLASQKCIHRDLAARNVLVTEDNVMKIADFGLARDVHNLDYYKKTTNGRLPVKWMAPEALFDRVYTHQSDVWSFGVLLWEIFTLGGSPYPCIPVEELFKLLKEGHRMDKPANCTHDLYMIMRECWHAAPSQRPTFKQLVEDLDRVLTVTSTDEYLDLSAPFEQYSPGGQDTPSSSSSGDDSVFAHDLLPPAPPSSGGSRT

Q: What does the source list for CN1C(=O)[C@@H](N2CCc3c(nn(Cc4ccccc4)c3C(N)=O)C2=O)COc2cc(Cl)ccc21 [Compound 10, (S)-2-benzyl-6-(8-chloro-5-methyl-4-oxo-2,3,4,5-tetrahydrobenzo[b][1,4]oxazepin-3-yl)-7-oxo-4,5,6,7-tetrahydro-2H-pyrazolo[3,4-c]pyridine-3-carboxamide]?
A: remaining activity at 1 µM (FGFR3(G697C)): 100%; remaining activity at 1 µM (PIK3CA(Q546K)): 97%; ΔTm at 10 µM (BRPF1B): -0.1 °C; remaining activity at 0.1 µM (PIK3CA(H1047Y)): 100%; remaining activity at 0.1 µM [1]: 91%; remaining activity at 0.1 µM (EGFR(L858R,T790M)): 100%; remaining activity at 0.1 µM (EGFR(L858R)): 100%; remaining activity at 0.1 µM (BRAF(V600E)): 100%; remaining activity at 0.1 µM (KIT(A829P)): 86%; remaining activity at 1 µM (PIK3CA(M1043I)): 87%; remaining activity at 1 µM (LRRK2(G2019S)): 86%; remaining activity at 1 µM [2]: 86%; receptor occupancy at 1 µM (NEK9): 3.71%; receptor occupancy at 1 µM (MERTK): 0.31%; receptor occupancy at 1 µM (CDK17): 4.13%; receptor occupancy at 1 µM (MAP3K3): 5.83%; receptor occupancy at 1 µM (TNK2(iso1)): 4.21%; receptor occupancy at 1 µM (CHEK2): -1.73%; receptor occupancy at 1 µM (TYRO3): -9.33%; receptor occupancy at 1 µM (BRSK2): 2.53%; receptor occupancy at 1 µM (NEK5): -1.37%; receptor occupancy at 1 µM (CDK4): -9.98%; receptor occupancy at 1 µM (NTRK2): 1.19%; receptor occupancy at 1 µM (SIK3 FL): -5.87%; receptor occupancy at 1 µM (PTK2): -12.2%; receptor occupancy at 1 µM (PAK4): 3.71%; receptor occupancy at 1 µM (CDK15): -12.8%
